In patent US11667604B2, “Phenyl containing compound, intermediate thereof, preparation method therefor and application thereof” (SHANGHAI MODERN PHARMACEUTICAL ENGINEERING RESEARCH CENTER …, priority 2019, dated 2023):
Where a name gives a salt, the structure may show the parent alone.

Experiment: Stability testing of carriers in solid form, residual amount determined by HPLC, and appearance
Assay type: physicochemical
Settings: for Appearance: storage condition not specified
Experimental: The carrier of embodiment 1 was placed in solid form under normal temperature and normal light, normal temperature and away from light, 4° C. away from light and −18° C. away from light, respectively, and the residual amount of the carrier was measured after being placed for 1d, 3d, 7d, 30d, 60d, 90d and 120d, respectively, and the residual amount was determined by HPLC.
The sodium salt of N-(all-trans-retinoyl)-L-cysteic acid methyl ester was placed in solid form at normal temperature and normal light, at normal temperature and away from light, at 4° C. away from light and at −18° C. away from light respectively (other conditions are the same as those in embodiment 4), and the appearance and residual amount were tested after being placed for 1d, 3d, 7d and 30d, respectively, wherein the residual amount was determined by HPLC.

With `COC(=O)[C@H](CS(=O)(=O)O)NC(=O)/C=C(C)/C=C/C=C(C)/C=C/C1=C(C)CCCC1(C)C` [sodium salt of N-(all-trans-retinoyl)-L-cysteic acid methyl ester] as the compound, how does the Appearance (0 d) read?
The Appearance was “Yellow powder”.

And the residual amount (4° C. away from light, 0 d)?
The residual amount was 99.54%.

What about the residual amount (4° C. away from light, 3 d) of the same compound?
Its residual amount is 93.76%.

What about the residual amount (4° C. away from light, 7 d) of the same compound?
The residual amount was 89.09%.

And the residual amount (4° C. away from light, 30 d)?
The residual amount was 79.69%.

And the Appearance (3 d)?
Its Appearance is “Orange”.

And the Appearance (7 d)?
Its Appearance is “Brown viscous”.

What about the Appearance (30 d) of the same compound?
Its Appearance is “Dark brown viscous”.

And the residual amount (normal temperature and away from light, 0 d)?
The residual amount was 99.54%.

What about the residual amount (normal temperature and away from light, 3 d) of the same compound?
Its residual amount is 88.91%.

And the residual amount (normal temperature and away from light, 7 d)?
Its residual amount is 78.62%.

What about the residual amount (normal temperature and normal light, 0 d) of the same compound?
The residual amount was 99.54%.

What about the residual amount (normal temperature and normal light, 3 d) of the same compound?
The residual amount was 83.71%.

What about the residual amount (normal temperature and normal light, 7 d) of the same compound?
Its residual amount is 64.32%.

And the residual amount (−18° C. away from light, 0 d)?
The residual amount was 99.54%.

What about the residual amount (−18° C. away from light, 3 d) of the same compound?
The residual amount was 96.16%.

What about the residual amount (−18° C. away from light, 7 d) of the same compound?
The residual amount was 94.17%.

What about the residual amount (−18° C. away from light, 30 d) of the same compound?
Its residual amount is 89.98%.
